Measured values taken from patent publication US9295732B2, “Conjugated TLR7 and/or TLR8 and TLR2 polycationic agonists” (CAYLA, priority 2013, dated 2016).

Key:
murine TLR7 = target: T1, murine TLR7 (Mus musculus, UniProt P58681); assay: HEK-Blue mTLR7 NF-κB/AP-1 SEAP reporter assay; type: cell-based; conditions: HEK-Blue mTLR7 cells, 10 μg/mL to 10 pg/ml, 24 hours, OD at 655 nm, FIG. 2
T1 construct: host or cells: HEK293 (HEK-Blue™ mTLR7)
T1 sequence (P58681 27-1050): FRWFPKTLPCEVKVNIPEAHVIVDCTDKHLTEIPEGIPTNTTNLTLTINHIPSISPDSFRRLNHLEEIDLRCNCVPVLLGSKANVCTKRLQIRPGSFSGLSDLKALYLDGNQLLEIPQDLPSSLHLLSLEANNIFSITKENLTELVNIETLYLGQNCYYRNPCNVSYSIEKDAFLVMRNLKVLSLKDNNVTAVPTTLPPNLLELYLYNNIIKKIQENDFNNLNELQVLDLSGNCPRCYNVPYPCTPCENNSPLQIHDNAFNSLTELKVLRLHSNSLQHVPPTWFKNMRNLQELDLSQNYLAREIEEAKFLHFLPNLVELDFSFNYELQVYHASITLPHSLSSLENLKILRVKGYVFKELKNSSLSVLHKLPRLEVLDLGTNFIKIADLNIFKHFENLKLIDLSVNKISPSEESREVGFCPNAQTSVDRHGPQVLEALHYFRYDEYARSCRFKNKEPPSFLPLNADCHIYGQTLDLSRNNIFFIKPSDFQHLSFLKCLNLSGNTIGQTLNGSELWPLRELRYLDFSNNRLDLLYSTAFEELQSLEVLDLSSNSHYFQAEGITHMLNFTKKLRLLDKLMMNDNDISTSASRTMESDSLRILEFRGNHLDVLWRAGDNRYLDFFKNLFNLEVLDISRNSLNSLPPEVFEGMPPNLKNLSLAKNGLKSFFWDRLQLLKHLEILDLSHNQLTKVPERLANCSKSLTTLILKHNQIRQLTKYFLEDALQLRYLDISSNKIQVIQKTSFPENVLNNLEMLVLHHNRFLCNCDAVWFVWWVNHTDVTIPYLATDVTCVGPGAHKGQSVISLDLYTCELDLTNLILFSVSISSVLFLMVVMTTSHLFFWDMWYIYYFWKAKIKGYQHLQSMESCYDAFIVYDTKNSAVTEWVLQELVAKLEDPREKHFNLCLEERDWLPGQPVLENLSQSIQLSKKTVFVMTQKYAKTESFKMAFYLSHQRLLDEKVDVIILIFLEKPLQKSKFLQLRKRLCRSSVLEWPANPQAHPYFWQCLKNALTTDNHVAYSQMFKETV
Outline: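 HEK293 cells stably expressing the given TLR, or RAW 264.7-derived cells (50,000 or 100,000 cells/well respectively), carry an NF-κB/AP-1-inducible SEAP reporter. Conjugated TLR7-TLR2 agonists at final 10 μg/mL to 10 pg/ml, 24 h at 37° C. SEAP read colorimetrically as OD at 655 nm in detection medium.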

[1] = system: ISG54 promoter activity in B16-ISG54 reporter cells; assay: IFN response assay, B16-ISG54 luciferase reporter cells; type: cell-based, mouse; conditions: in complexes with pDNA 3:24 (w:w), overnight, FIG. 6B
Protocol: The effect of the pDNA:TLR7-TLR2 polyamine molecules complexes on inducing an interferon response was examined. pDNA:TLR7-TLR2 polyamine molecules mixtures (pDNA:TLR7-TLR2 polyamine molecules ratio 3:24, w:w) in serum-free medium or 5% glucose were prepared as described above and added to IFN reporter cells. Luciferase reporter cell lines were used to assay interferon response. A plasmid containing an interferon-inducible luciferase reporter gene was introduced into mouse RAW 264.7 macrophages and mouse B16 melanoma cells, giving rise to the RAW-ISG54 and B16-ISG54 reporter cell lines respectively. Expression of the luciferase reporter gene by the plasmid is under the control of an interferon-inducible promoter (I-ISG54) comprising five interferon-stimulated response elements (ISRE) and the minimal promoter of the human ISG-54K (Interferon Stimulation of a Gene encoding a 54 kDa protein) gene. The ISG-54K gene is induced by interferon regulatory factor 3 (IRF3), which has a key involvement in […] responses (Grandvaux et al. 2002) and the minimal promoter of the human ISG-54K gene contains two ISRE sites and fully inducible by type I interferons (IFN-α and IFN-β) and interferon regulatory factors (IRFs) (Wathelet et al. 1988; Grandvaux et al. 2002).
The RAW-ISG54 and B16-ISG54 reporter cell lines were seeded onto 96 well microtiter plates at 100,000 cells per well and 75,000 cells per well respectively. Cells were cultured in DMEM supplemented with 10% (v/v) heat inactivated fetal bovine serum (30 min at 56° C.), 4.5 g/I glucose, 2 mM L-glutamine, 50 U/ml penicillin, 50 μg/ml streptomycin, 100 μg/ml Normocin™ (InvivoGen) together with pDNA:TLR7-TLR2 polyamine complexes at 37° C. overnight. pDNA:TLR7-TLR2 polyamine molecules complexes were prepared as described above prior to adding to the IFN reporter cells. The induced luciferase expression was assessed in the reporter cell lines using a coelenterazine-base luminescence assay reagent, the Quanti-Luc™ (InvivoGen). Secreted luciferase activity was determined by bioluminescence quantification of the cell culture media using a microplate luminometer (FLUOstar OPTIMA from BMG Labtech).

| Molecule | ability to activate mTLR7 (murine TLR7) | ability to induce an IFN response in B16-ISG54 reporter cells [1] |
| --- | --- | --- |
| CCCCCCCCCCCCCCCC(=O)OCC(CSC[C@H](N)C(=O)N[C@@H](COC(=O)c1ccc(Cn2c(O)nc3c(N)nc(NCCCC)nc32)cc1)C(=O)NCCCNCCCCNCCCN)OC(=O)CCCCCCCCCCCCCCC (stereo partly drawn) [CL514, (6R,9S)-6,23-diamino-9-((4-((6-amino-2-(butylamino)-8-hydroxy-9H-purin-9-yl)methyl)benzoyloxy)methyl)-7,10-dioxo-4-thia-8,11,15,20-tetraazatricosane-1,2-diyl dipalmitate] | activate mTLR7 | induce an IFN response in B16-ISG54 reporter cells |
| CCCCCCCCCCCCCCCC(=O)OCC(CSC[C@H](N)C(=O)N[C@@H](CCC(=O)NCCCNCCCCNCCCN)C(=O)Nc1ccc(Cn2c(O)nc3c(N)nc(NCCCC)nc32)cc1)OC(=O)CCCCCCCCCCCCCCC (stereo partly drawn) [CL527, (6R,9S)-6,25-diamino-9-(4-((6-amino-2-(butylamino)-8-hydroxy-9H-purin-9-yl)methyl)phenylcarbamoyl)-7,12-dioxo-4-thia-8,13,17,22-tetraazapentacosane-1,2-diyl dipalmitate] | activate mTLR7 | induce an IFN response in B16-ISG54 reporter cells |
| CCCCCCCCCCCCCCCC(=O)N[C@@H](CSCC(COC(=O)CCCCCCCCCCCCCCC)OC(=O)CCCCCCCCCCCCCCC)C(=O)N[C@@H](CO)C(=O)N[C@@H](CCCCN)C(=O)N[C@@H](CCCCN)C(=O)N[C@@H](CCCCN)C(=O)N[C@@H](CCCCN)C(=O)Nc1ccc(Cn2c(O)nc3c(N)nc(NCCCC)nc32)cc1 (stereo partly drawn) [CL534, ((6R,9S,12S,15S,18S,21S)-25-amino-21-(4-((6-amino-2-(butylamino)-8-hydroxy-9H-purin-9-yl)methyl)phenylcarbamoyl)-12,15,18-tris(4-aminobutyl)-9-(hydroxylmethyl)-7,10,13,16,19-pentaoxo-6-palmitamido-4-thia-8,11,14,17,20-pentaazapentacosane-1,2-diyl dipalmitate] | activate mTLR7 | – |
| CCCCCCCCCCCCCCCC(=O)OCC(CSC[C@H](N)C(=O)NCCCNCCCCNCCCNC(=O)CNC(=O)c1ccc(Cn2c(O)nc3c(N)nc(NCCCC)nc32)cc1)OC(=O)CCCCCCCCCCCCCCC (stereo partly drawn) [CL553, (20R)-20-amino-1-(4-((6-amino-2-(butylamino)-8-hydroxy-9H-purin-9-yl)methyl)phenyl)-1,4,19-trioxo-22-thia-2,5,9,14,18-pentaazapentacosane-24,25-diyl dipalmitate] | activate mTLR7 | induce an IFN response in B16-ISG54 reporter cells |
| (6S,9S,12S,15S,18S,21R)-6,25-diamino-21-(4-((6-amino-2-(butylamino)-8-hydroxy-9H-purin-9-yl)methyl)phenylcarbamoyl)-12,15,18-tris(4-aminobutyl)-9-(hydroxyl methyl)-7,10,13,16,19-pentaoxo-4-thia-8,11,14,17,20-pentaazapentacosane-1,2-diyl dipalmitate [CL413] | activate mTLR7 | induce an IFN response in B16-ISG54 reporter cells |
